From publication PMC5805526, “ZB716, a steroidal selective estrogen receptor degrader (SERD), is orally efficacious in blocking tumor growth in mouse xenograft models” (Oncotarget, 2018)
Values joined by “and” are separate entries in the source; they are usually repeats but may differ in a detail not shown here. Equal entries are not always repeated. Where two headings read alike, the source gives them in different places.

Experiments:
[1] = Pharmacokinetic study in rats, single oral dose; type: in vivo, Sprague-Dawley rats; conditions: rat; for concentration at 1 h / concentration at 3 h / concentration at 6 h / concentration at 8 h / concentration at 24 h: oral, read-out: Rat plasma concentration of ZB716 after a single oral dose
Experimental: Female Sprague-Dawley rats, weighing between 350 and 400 g (Charles River Laboratories, Portage, MI) were used for the pharmacokinetic study on ZB716. Rats were given oral gavage containing 5% dimethyl sulfoxide (DMSO), 40% polyethylene glycol 400, 55% saline-dissolved ZB716, at doses ranging from 1 mg/kg to 20 mg/kg. After drug administration, blood samples were collected from the lateral tail vein of the rat at 1, 3, 6, 8, 24 h. Rat blood was collected with a capillary into 1.5 mL microcentrifuge tubes containing 0.01 mL of 10 % EDTA anticoagulant. Plasma was then separated from cell pellets by centrifugation in a refrigerated centrifuge at 4°C and transferred to a separate tube. Plasma samples were frozen at −80°C until analysis.
The plasma samples of 100 μL each were processed for analysis by a TSQ UPLC-MS/MS system. Aliquots of 10 μL of 0.5 ng/μl E-Tamoxifen-2C^13, N^15, 200 μL methanol, and 400 μl chloroform were added to the plasma in a 1.5 mL centrifuge tube in sequence. The sample was vortexed and stored at −20°C for 4 hours, followed by sonication in a Branson B3510MT Ultrasonic Cleaners for 30 min and centrifuged at 12000 RPM on a Heraeus Fresco 21 Refrigerated Micro Centrifuge from Thermo Fisher Scientific for 10 min. The supernatant was dried with a nitrogen gas flow and suspended in 100 μL methanol. Aliquots of 10 μL of the above processed samples were injected into a TSQ Vantage mass spectrometer connected with a heated electrospray ionization probe and a Dionex Ultimat 3000 UHPLC with a Hypersil gold column (50×2.1 mm). The probe setting and front mass spectrometer setting were controlled as follows: spray voltage 3200 voltage, auxiliary gas 10psi, vaporizer temperature 365°C, capillary temperature 300°C, sheath gas 30psi, S-lens RF amplitude 51 voltage. The flow gradient was started with initial 30% mobile phase A of water with 0.05% formic acid to 1 min, to 100% mobile phase B of acetonitrile with 0.05% formic acid at 8 min, and return to 30% mobile phase A at 13 min.

[2] = test system: MCF-7 human breast cancer xenograft; experiment: Efficacy in MCF-7 xenograft tumor model; type: in vivo, Nu/Nu mice; conditions: ZB716 at both 10 mg/kg and 30 mg/kg by oral gavage, three weeks
Experimental: Four to six weeks old female ovariectomized Nu/Nu mice were purchased from Charles River Laboratories (Wilmington, MA). MCF-7 cells were cultured and harvested in the exponential growth phase using a PBS/EDTA solution. The animals were injected bilaterally in the mammary fat pad (MFP) with 5×10^6 viable cells suspended in 50 μL sterile PBS mixed with 100 μL Matrigel (reduced factor; BD Biosciences, Bed- ford, MA). 17b-Estradiol pellets (0.72 mg, 60 day release; Innovative Research of America, Sarasota, FL) were implanted subcutaneously in the lateral area of the neck using a precision trochar (10 gages) at the time of cell injection. Tumors were allowed to form and at day 15 post cell injection mice. […] Tumor sizes were monitored and recorded every other day for three weeks of treatment duration.

ERα LBD = biological target: T1, ERα LBD (Homo sapiens, UniProt P03372); experiment: MARCoNI ERα-coregulator interaction peptide microarray; type: biochemical; conditions: 10 μM compound, 7 nM GST-tagged ERα LBD, vs apo
T1 construct: using 7 nM GST-tagged ERα LBD (Invitrogen); purchased Invitrogen
T1 sequence (P03372 311-547 limits assumed): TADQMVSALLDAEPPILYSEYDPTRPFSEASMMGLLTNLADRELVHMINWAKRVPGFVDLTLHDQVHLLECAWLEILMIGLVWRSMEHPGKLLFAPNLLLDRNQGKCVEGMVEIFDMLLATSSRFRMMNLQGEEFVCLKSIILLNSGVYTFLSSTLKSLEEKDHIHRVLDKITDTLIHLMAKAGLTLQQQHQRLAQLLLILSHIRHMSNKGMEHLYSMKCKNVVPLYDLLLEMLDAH
Experimental: The modulation of ERα-coregulator interaction by compound was analyzed using MARCoNI (Micro Array Assay for Real-time Coregulator Nuclear receptor Interaction) as described previously using 7 nM GST-tagged ERα LBD (Invitrogen).
Each condition is measured using 3 technical replicates (arrays). After incubation, unbound receptor is removed by washing, and a tiff image of each array is acquired using a CCD camera and receptor binding to each peptide on the array is quantified using dedicated software. For each condition, the three technical replicates are used to calculate mean and S.E.M. ERα binding as well as compound-induced log-fold modulation vs. control for each individual motif. Significance of the modulation is assessed using Student's t-Test.

[3] = parameters: method as in PMID 27529700; conditions: mice; cited from earlier work
ERα = biological target: T2, ERα (Homo sapiens, UniProt P03372); experiment: ER downregulation in MCF-7 cells (Western blot); type: cell-based; conditions: treated for 4 hours, read-out: ERα IC50 (ER downregulation in MCF-7 cells)
T2 construct: MCF-7 cells were plated at a density of 200,000 cells/60mm dish; endogenous in cells; host or cells: MCF-7
T2 sequence (P03372 1-595): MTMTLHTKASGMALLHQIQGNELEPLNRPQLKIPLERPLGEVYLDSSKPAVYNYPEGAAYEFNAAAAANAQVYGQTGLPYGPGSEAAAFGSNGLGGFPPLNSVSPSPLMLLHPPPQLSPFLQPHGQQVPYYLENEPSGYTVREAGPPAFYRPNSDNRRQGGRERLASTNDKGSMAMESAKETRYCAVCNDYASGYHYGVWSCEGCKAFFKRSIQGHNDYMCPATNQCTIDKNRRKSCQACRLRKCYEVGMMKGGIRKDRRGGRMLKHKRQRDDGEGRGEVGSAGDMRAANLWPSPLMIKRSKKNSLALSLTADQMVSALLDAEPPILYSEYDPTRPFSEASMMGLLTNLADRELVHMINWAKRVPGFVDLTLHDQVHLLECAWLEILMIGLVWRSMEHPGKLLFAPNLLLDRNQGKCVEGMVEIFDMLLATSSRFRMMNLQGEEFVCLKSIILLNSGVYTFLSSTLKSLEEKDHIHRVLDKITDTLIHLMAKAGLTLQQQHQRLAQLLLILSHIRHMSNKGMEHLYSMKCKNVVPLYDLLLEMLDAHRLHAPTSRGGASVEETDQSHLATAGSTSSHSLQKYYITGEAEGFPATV
Experimental: MCF-7 cells were plated at a density of 200,000 cells/60mm dish. Media containing the same drug concentrations as the growth curve assay were added on the day following plating (day 0) and allowed to incubate for 5 days for Western blot. Media with the tested compound was changed every other day. Cells were lysed. Lysates were placed on a rotisserie at 4°C for 30 min and then spun at 4°C at 12,000 rcf for 10 min. Supernatants were assayed for protein content, snap-frozen, and stored at −80°C if not run immediately. 50 μg of protein was subjected to Western blot protocol. Membranes were blocked and then incubated with 1:200 dilution of ERα antibody at 4°C overnight followed by 1:10,000 dilution of secondary antibody for 1 hr at room temperature. They were then imaged on a LICOR infrared scanner.

[4] = female, Sprague-Dawley, plasma, 1 mg/kg
[5] = female, Sprague-Dawley, plasma, 5 mg/kg
[6] = female, Sprague-Dawley, plasma, 10 mg/kg
[7] = female, Sprague-Dawley, plasma, 20 mg/kg

Q: Which results are given for `C[C@]12CC[C@@H]3c4ccc(B(O)O)cc4C[C@@H](CCCCCCCCC[S+]([O-])CCCC(F)(F)C(F)(F)F)[C@H]3[C@@H]1CC[C@@H]2O` (some centres unmarked) [ZB716]?
A: concentration at 1 h [1, 4]: 14.8 ± 6.51 ng/mL; concentration at 3 h [1, 4]: 9.23 ± 2.33 ng/mL; concentration at 6 h [1, 4]: 4.7 ± 1.66 ng/mL; concentration at 8 h [1, 4]: 4.42 ± 2.38 ng/mL; concentration at 24 h [1, 4]: 1.36 ± 1.42 ng/mL; concentration at 1 h [1, 5]: 46.5 ± 4.81 ng/mL; concentration at 3 h [1, 5]: 23.4 ± 2.8 ng/mL; concentration at 6 h [1, 5]: 15.9 ± 2.03 ng/mL; concentration at 8 h [1, 5]: 11.4 ± 0.52 ng/mL; concentration at 24 h [1, 5]: 9.37 ± 1.24 ng/mL; concentration at 1 h [1, 6]: 218 ± 27.8 ng/mL; concentration at 3 h [1, 6]: 93.6 ± 21.8 ng/mL; concentration at 6 h [1, 6]: 62 ± 14.9 ng/mL; concentration at 8 h [1, 6]: 60.7 ± 13.9 ng/mL; concentration at 24 h [1, 6]: 33.1 ± 10.6 ng/mL; concentration at 1 h [1, 7]: 1040 ± 153 ng/mL; concentration at 3 h [1, 7]: 671 ± 125 ng/mL; concentration at 6 h [1, 7]: 371 ± 111 ng/mL; concentration at 8 h [1, 7]: 300 ± 118 ng/mL; concentration at 24 h [1, 7]: 98.5 ± 36.1 ng/mL; Tmax ([1]; female, Sprague-Dawley, plasma, all four oral doses (1, 5, 10, 20 mg/kg), read-out: time of peak concentration in rat plasma): 1 h; peak plasma concentration ([1]; 20 mg/kg oral, 20 mg/kg): over 1000 ng/mL and > 1.6 μM; tumor growth in MCF-7 xenograft [2]: complete blockage of tumor growth; modulation of ERα interaction with coactivator motifs (NCOA family) (ERα LBD): strongly reduced; plasma peak concentration after single-dose oral gavage relative to same-dose fulvestrant s.c. [3]: over 10 times; DC50 (ERα): 0.8 nM
